Earlier results, collected in patent US20240245685A1, “PHOSPHODIESTERASE-5 INHIBITOR COMBINATIONS, METHODS OF MAKING, AND METHODS OF USE THEREOF” (VK Research Associates Inc, priority 2020, published 2024).
Where two headings read alike, the source gives them in different places.

What was measured:
[1] = for median time to maximum concentration (t max): oral administration
[2] = not given; remark: listed apart in the source
[3] = oral tadalafil therapy

## COc1ccc(CN=c2[nH]c(N3CCC[C@H]3CO)ncc2C(=O)NCc2ncccn2)cc1Cl [avanafil]
[1]
  absorption profile when administered with a high-fat meal: not found

## CN1CC(=O)N2[C@H](c3ccc4c(c3)OCO4)c3[nH]c4ccccc4c3C[C@@H]2C1=O [tadalafil]
[1]
  absorption profile when administered with a high-fat meal: not found
Tadalafil 5 mg
  Dyspepsia incidence: 4%
  Headache incidence: 11%
Tadalafil 10 mg
  Dyspepsia incidence: 8%
  Headache incidence: 11%
Tadalafil 20 mg
  Dyspepsia incidence: 10%
  Headache incidence: 15%
[2]; maximum doses
  Dyspepsia Duration: 15.5 h
  Dyspepsia Mean Duration: 11.2 h
  Headache Duration: 24.3 h
  Headache Mean Duration: 17.0 h
[2]; patients taking tadalafil versus sildenafil
  duration of side effects versus sildenafil: more prolonged
[2]; tadalafil versus sildenafil
  frequency of headache and dyspepsia versus sildenafil: more common
[3]
  duration of delayed onset side effects, e.g. gastritis and back pain: up to 3 hours

## CCCc1nn(C)c2c(=O)[nH]c(-c3cc(S(=O)(=O)N4CCN(C)CC4)ccc3OCC)nc12 [sildenafil]
[1]
  median time to maximum concentration (t max): 1 h

## CCCc1nc(C)c2c(=O)[nH]c(-c3cc(S(=O)(=O)N4CCN(CC)CC4)ccc3OCC)nn12 [vardenafil]
[1]
  median time to maximum concentration (t max): 1 h
